Reference: patent publication US20040034105A1, “Use of 1-phenyl-3-dimethylaminopropane compounds for treatment of urinary incontinence” (Gruenenthal GmbH, priority 2000, published 2004)
Marks after values point to notes of the source that are not given here.

What was measured:
[1] = tested on: female Sprague-Dawley rats; assay: Cystometry tests on conscious fresh rats; format: in vivo, rat; settings: for BC Bladder Capacity (change compared to the baseline value) / ICI Inter-Contraction Interval (change compared to the baseline value) / TP Threshold Pressure (change compared to the baseline value): effect maximum, mean of 3 micturition cycles; for Activity of the enantiomers of racemic compound 1 in cystometry: iv
Method: Three days after implantation of bladder and venous catheters the animals were investigated in the conscious state while freely moving. The bladder catheter was connected to a pressure gauge and an injection pump. The animals were placed in metabolic cages that enable the volume of urine to be measured. Physiological saline solution was infused (10 ml/hour) into the emptied bladder and the bladder pressure and volume of urine were continuously recorded. After a stabilisation phase a 20-minute phase was recorded that was characterised by normal, reproducible micturition cycles. The following parameters among others were measured:
threshold pressure TP, bladder pressure immediately before micturition,
bladder capacity BC, residual volume after prior micturition plus volume of infused solution during the filling phase,
intercontraction interval ICI, i.e. the time interval between consecutive micturition.
An increase in the threshold pressure (TP) indicates an important therapeutic effect in one of the medical conditions covered by the invention. Also, the intercontraction interval (ICI) is an important parameter for measuring the physiological effectiveness of a substance in the treatment of urinary incontinence, as is the bladder capacity (BC). In this connection, on account of the widely differing causes of the symptoms of these disease patterns it is not necessary to influence positively all three parameters in order for a medicament to be effective.
After recording three reproducible micturition cycles to provide a baseline value, the test substances 1 (1.0 mg/kg), 2 (0.1; 0.3 and 0.5 mg/kg), 21 (0.5 mg/kg), 7 (0.3 mg/kg), 8 (1.0 mg/kg), 9 (0.5 mg/kg) and 11 (0.5 mg/kg) in a vehicle comprising 0.9% NaCl were applied intravenously and the effect on the cystometric parameters was recorded at 90 to 120 minutes. In the effect maximum the mean value of 3 micturition cycles was determined and recorded as a percentage change compared to the baseline value (Table 1).

female rats = assay: Cystometry investigations in narcotised fresh rats (suppression of spontaneous bladder contractions); format: in vivo, rat; settings: intravenous, cumulative, mean value from at least two experiments
Method: The cystometric investigation was carried out on fresh female rats according to the method of Kimura et al. (Kimura et al., 1996, Int. J. Urol. 3: 218-227). The abdomen of narcotised ventilated rats is opened and the ureter is ligated. The urine is drawn off from the kidneys. A catheter is inserted into the bladder and secured in place. […] The test substance is applied intravenously in a cumulative manner after stable starting values were reached. An effect on the bladder function is manifested by the suppression of the spontaneous contractions. The disappearance of the contractions over a period of 10 minutes serves as a parameter for their suppression.
With all the substances listed there was a measurable suppression of the spontaneous contractions in rats, Table 2 showing the mean value of the lowest dose from at least two experiments, in which contractions disappeared for the first time over a period of 10 minutes.

CC[C@](O)(c1cccc(OC)c1)[C@H](C)CN(C)C.Cl (racemic) [Compound 1, (2RS,3RS)-1-dimethylamino-3-(3-methoxyphenyl)-2-methylpentan-3-ol, hydrochloride]
BC Bladder Capacity (change compared to the baseline value) ([1]; 1.0 mg/kg iv): +31%*** | ICI Inter-Contraction Interval (change compared to the baseline value) ([1]; 1.0 mg/kg iv): +42% | TP Threshold Pressure (change compared to the baseline value) ([1]; 1.0 mg/kg iv): +94%**

CC[C@@H](c1cccc(O)c1)[C@@H](C)CN(C)C.Cl [Compound 11, (−)-(1R,2R)-3-(3-dimethylamino-1-ethyl-2-methylpropyl)-phenol, hydrochloride]
BC Bladder Capacity (change compared to the baseline value) ([1]; 0.5 mg/kg iv): +11% | ICI Inter-Contraction Interval (change compared to the baseline value) ([1]; 0.5 mg/kg iv): +22.6% | TP Threshold Pressure (change compared to the baseline value) ([1]; 0.5 mg/kg iv): +9%

CC[C@@](O)(c1cccc(OC)c1)[C@@H](C)CN(C)C.Cl [Compound 21, (−)-(2S,3S)-1-dimethylamino-3-(3-methoxyphenyl)-2-methylpentan-3-ol, hydrochloride]
BC Bladder Capacity (change compared to the baseline value) ([1]; 0.5 mg/kg iv): +3% | ICI Inter-Contraction Interval (change compared to the baseline value) ([1]; 0.5 mg/kg iv): +10% | TP Threshold Pressure (change compared to the baseline value) ([1]; 0.5 mg/kg iv): −1.1% | Activity of the enantiomers of racemic compound 1 in cystometry [1]: plays only a contributory role

C[C@H](CN(C)C)[C@@](C)(O)c1cccc(O)c1.Cl (racemic) [Compound 8, (1RS,2RS)-3-(3-dimethylamino-1-hydroxy-1,2-dimethylpropyl)-phenol, hydrochloride]
BC Bladder Capacity (change compared to the baseline value) ([1]; 1.0 mg/kg iv): +7% | ICI Inter-Contraction Interval (change compared to the baseline value) ([1]; 1.0 mg/kg iv): +14.4% | TP Threshold Pressure (change compared to the baseline value) ([1]; 1.0 mg/kg iv): +60%**

CC[C@](O)(c1cccc(OC)c1)[C@H](C)CN(C)C.Cl [Compound 2, (+)-(2R,3R)-1-dimethylamino-3-(3-methoxyphenyl)-2-methylpentan-3-ol, hydrochloride]
BC Bladder Capacity (change compared to the baseline value) ([1]; 0.1 mg/kg iv): +7.8% | ICI Inter-Contraction Interval (change compared to the baseline value) ([1]; 0.1 mg/kg iv): +15.6% | TP Threshold Pressure (change compared to the baseline value) ([1]; 0.1 mg/kg iv): +28.5%** | BC Bladder Capacity (change compared to the baseline value) ([1]; 0.3 mg/kg iv): +33%* | ICI Inter-Contraction Interval (change compared to the baseline value) ([1]; 0.3 mg/kg iv): +28%* | TP Threshold Pressure (change compared to the baseline value) ([1]; 0.3 mg/kg iv): +122%** | BC Bladder Capacity (change compared to the baseline value) ([1]; 0.5 mg/kg iv): +20.6%* | ICI Inter-Contraction Interval (change compared to the baseline value) ([1]; 0.5 mg/kg iv): +28.6%** | TP Threshold Pressure (change compared to the baseline value) ([1]; 0.5 mg/kg iv): +77.5%** | Activity of the enantiomers of racemic compound 1 in cystometry [1]: effectively active

CC[C@](O)(c1cccc(SC)c1)[C@H](C)CN(C)C.Cl (racemic) [Compound 5, (2RS,3RS)-1-dimethylamino-2-methyl-3-(3-methylsulfanylphenyl)-pentan-3-ol, hydrochloride]
Lowest Dose at which contractions disappeared for the first time over a period of 10 minutes (female rats): 2.3 mg/kg

CCC(O)(c1cccc(OC)c1)C1(CN(C)C)CCCCC1.Cl (racemic) [Compound 13, (1RS)-1-(1-dimethylaminomethylcyclohexyl)-1-(3-methoxyphenyl)-propan-1-ol, hydrochloride]
Lowest Dose at which contractions disappeared for the first time over a period of 10 minutes (female rats): 20.0 mg/kg

CC[C@](O)(c1cccc(C(F)F)c1)[C@H](C)CN(C)C.Cl (racemic) [Compound 4, (2RS,3RS)-3-(3-difluoromethylphenyl)-1-dimethylamino-2-methylpentan-3-ol, hydrochloride]
Lowest Dose at which contractions disappeared for the first time over a period of 10 minutes (female rats): 1.7 mg/kg

CC[C@](O)(c1ccc(Cl)c(Cl)c1)[C@H](C)CN(C)C.Cl (racemic) [Compound 3, (2RS,3RS)-3-(3,4-dichlorophenyl)-1-dimethylamino-2-methylpentan-3-ol, hydrochloride]
Lowest Dose at which contractions disappeared for the first time over a period of 10 minutes (female rats): 23.3 mg/kg

CCC(O)(c1cccc(O)c1)C(C)CN(C)C.Cl (racemic) [Compound 7, (2RS,3RS)-3-(3-dimethylamino-1-ethyl-1-hydroxy-2-methylpropyl)-phenol, hydrochloride]
BC Bladder Capacity (change compared to the baseline value) ([1]; 0.3 mg/kg iv): +32%* | ICI Inter-Contraction Interval (change compared to the baseline value) ([1]; 0.3 mg/kg iv): +28%* | TP Threshold Pressure (change compared to the baseline value) ([1]; 0.3 mg/kg iv): +95%**

CC[C@](OC(C)=O)(c1cccc(OC)c1)[C@H](C)CN(C)C.Cl [Compound 12, (+)-(1R,2R)-acetic acid-3-dimethylamino-1-ethyl-1-(3-methoxyphenyl)-2-methylpropyl ester, hydrochloride]
Lowest Dose at which contractions disappeared for the first time over a period of 10 minutes (female rats): 30.0 mg/kg

COc1cccc(C(O)(CCN(C)C)C(C)(C)C)c1.Cl (racemic) [Compound 6, (3RS)-1-dimethylamino-3-(3-methoxyphenyl)-4,4-dimethylpentan-3-ol, hydrochloride]
Lowest Dose at which contractions disappeared for the first time over a period of 10 minutes (female rats): 16.7 mg/kg

C[C@H](CN(C)C)[C@@](C)(O)c1cccc(O)c1.Cl [Compound 10, (+)-(1R,2R)-3-(3-dimethylamino-1-hydroxy-1,2-dimethylpropyl)-phenol, hydrochloride]
Lowest Dose at which contractions disappeared for the first time over a period of 10 minutes (female rats): 0.2 mg/kg

C[C@H](CN(C)C)[C@@](C)(O)c1cccc(O)c1.Cl [Compound 9, (+)-(1R,2R)-3-(3-dimethylamino-1-hydroxy-1,2-dimethylpropyl)-phenol, hydrochloride]
BC Bladder Capacity (change compared to the baseline value) ([1]; 0.5 mg/kg iv): +50%** | ICI Inter-Contraction Interval (change compared to the baseline value) ([1]; 0.5 mg/kg iv): +21%* | TP Threshold Pressure (change compared to the baseline value) ([1]; 0.5 mg/kg iv): +56%**

CC[C@](O)(c1ccc(Cl)cc1)[C@H](C)CN(C)C.Cl (racemic) [Compound 14, (2RS,3RS)-3-(4-chlorophenyl)-1-dimethylamino-2-methylpentan-3-ol, hydrochloride]
Lowest Dose at which contractions disappeared for the first time over a period of 10 minutes (female rats): 20.0 mg/kg
